According to patent publication US20240350493A1 (Kadmon Corporation, LLC, priority 2022, published 2024):
Marks after values point to notes of the source that are not given here.

Columns and labels:
[1] = human, in vivo
[2] = phase I two-part drug-drug interaction study, plasma pharmacokinetics (Example 1); type: in vivo, human
Description: The secondary objective was to provide additional information on the safety and tolerability of this dose regimen in healthy males.
This was a single center, non-randomized, DDI study in 35 (Part 1) and 38 (Part 2) healthy males. The key inclusion criterion was males aged 18 to 55 years (inclusive). […] In Part 2, co-administration with omeprazole was studied. The study design is illustrated in FIG. 1.
At least a 2-to 8-day washout occurred between each period to account for a minimum of 5 half-lives of the active moieties dosed in the preceding period.
Blood samples were collected into 6 mL K,EDTA tubes and were processed within 30 minutes of collection. The resultant plasma was then frozen within 90 minutes of collection and stored at […] until shipment to the bioanalytical laboratory.
For each comparison, PK parameters were natural log transformed and analyzed using mixed effect modeling with treatment included as a fixed effect and subject as a random effect. Adjusted geometric mean ratios (GMRs) and corresponding 90% CIs were calculated.

[3] = target: ROCK2 (Homo sapiens, UniProt O75116); assay: ROCK2 inhibition; type: biochemical
[4] = 200 mg belumosudil BID + omeprazole
[5] = 200 mg belumosudil BID + omeprazole, first dose
[6] = 200 mg belumosudil BID + omeprazole, second dose
[7] = 200 mg belumosudil BID alone, first dose
[8] = 200 mg belumosudil BID alone, second dose
[9] = 200 mg belumosudil single dose + rifampicin
[10] = 200 mg belumosudil single dose alone
[11] = coadministration of itraconazole
[12] = coadministration of rabeprazole
[13] = 200 mg belumosudil single dose + itraconazole
[14] = 200 mg belumosudil single dose + rabeprazole

Sequence of ROCK2 (O75116 whole entry): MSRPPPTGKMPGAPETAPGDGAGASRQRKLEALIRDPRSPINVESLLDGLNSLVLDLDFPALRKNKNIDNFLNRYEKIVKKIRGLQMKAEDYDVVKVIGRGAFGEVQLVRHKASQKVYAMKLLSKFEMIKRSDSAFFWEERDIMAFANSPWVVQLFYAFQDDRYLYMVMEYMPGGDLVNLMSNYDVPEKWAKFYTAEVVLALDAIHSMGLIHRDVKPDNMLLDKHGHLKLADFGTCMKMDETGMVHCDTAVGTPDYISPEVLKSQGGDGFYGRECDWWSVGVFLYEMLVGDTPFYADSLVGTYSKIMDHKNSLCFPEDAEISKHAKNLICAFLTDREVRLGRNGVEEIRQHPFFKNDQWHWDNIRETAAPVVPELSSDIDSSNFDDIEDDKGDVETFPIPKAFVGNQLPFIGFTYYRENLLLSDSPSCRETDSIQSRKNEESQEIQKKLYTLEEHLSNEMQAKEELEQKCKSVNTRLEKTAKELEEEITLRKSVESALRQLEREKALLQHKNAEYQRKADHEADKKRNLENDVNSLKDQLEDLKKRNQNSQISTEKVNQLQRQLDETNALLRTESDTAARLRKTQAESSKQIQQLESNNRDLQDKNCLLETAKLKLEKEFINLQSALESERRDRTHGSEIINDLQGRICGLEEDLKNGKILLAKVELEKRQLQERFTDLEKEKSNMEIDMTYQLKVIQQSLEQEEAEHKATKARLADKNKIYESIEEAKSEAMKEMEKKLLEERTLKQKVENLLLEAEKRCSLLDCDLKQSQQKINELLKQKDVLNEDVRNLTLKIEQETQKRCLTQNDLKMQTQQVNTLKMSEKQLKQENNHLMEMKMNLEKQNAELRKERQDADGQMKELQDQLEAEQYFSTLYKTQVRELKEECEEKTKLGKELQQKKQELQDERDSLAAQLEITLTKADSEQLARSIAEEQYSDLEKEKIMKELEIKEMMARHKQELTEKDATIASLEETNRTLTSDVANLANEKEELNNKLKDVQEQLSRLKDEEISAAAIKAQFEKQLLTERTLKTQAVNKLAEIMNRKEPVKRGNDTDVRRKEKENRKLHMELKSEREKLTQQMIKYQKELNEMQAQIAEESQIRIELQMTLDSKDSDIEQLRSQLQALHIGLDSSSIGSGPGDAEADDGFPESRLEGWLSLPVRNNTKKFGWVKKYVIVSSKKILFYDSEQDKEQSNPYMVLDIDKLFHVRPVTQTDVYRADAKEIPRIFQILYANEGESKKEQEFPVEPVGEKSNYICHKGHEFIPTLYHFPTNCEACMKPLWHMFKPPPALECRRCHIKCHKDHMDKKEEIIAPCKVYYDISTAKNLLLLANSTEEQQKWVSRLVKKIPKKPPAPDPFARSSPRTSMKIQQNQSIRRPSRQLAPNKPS

NC(=O)COc1cccc(-c2nc(Nc3ccc4[nH]ncc4c3)c3ccccc3n2)c1 [KD025m1]
metabolite exposure relative to the parent [1]: < 5%
increase in AUClast vs belumosudil alone [2]: 150%
increase in Cmax vs belumosudil alone [2]: 129%
AUC0-24, arithmetic mean (SD) [2, 4]: 113 (81.2) ^q ng*h/mL
AUC0-24, geometric mean (geometric CV %) [2, 4]: 91.5 (76.3) ^q; ng*h/mL
AUCinf, arithmetic mean (SD) [2, 4]: 279 (122) ^t ng*h/mL
AUCinf, geometric mean (geometric CV %) [2, 4]: 265 (47.6) ^t; ng*h/mL
AUClast, arithmetic mean (SD) [2, 4]: 164 (100) ^q ng*h/mL
AUClast, geometric mean (geometric CV %) [2, 4]: 123 (114.0) ^q; ng*h/mL
t1/2, arithmetic mean (SD) [2, 4]: 2.31 (0.848) ^u h
t1/2, geometric mean (geometric CV %) [2, 4]: 2.21 (39.0) ^u; h
Cmax, arithmetic mean (SD) [2, 5]: 20.5 (11.4) ^j ng/mL
Cmax, geometric mean (geometric CV %) [2, 5]: 18.0 (54.6) ^j; ng/mL
Tmax, median (range) [2, 5]: 3.00 (1.00-5.00) h
Cmax, arithmetic mean (SD) [2, 6]: 21.2 (11.3) ^s ng/mL
Cmax, geometric mean (geometric CV %) [2, 6]: 18.9 (48.7) ^s; ng/mL
Tmax, median (range) [2, 6]: 16.50 (13.50-22.00) h
AUC0-24, arithmetic mean (SD) ([2]; 200 mg belumosudil BID alone): 187 (161) ^l ng*h/mL
AUC0-24, geometric mean (geometric CV %) ([2]; 200 mg belumosudil BID alone): 138 (91.3) ^l; ng*h/mL
AUCinf, arithmetic mean (SD) ([2]; 200 mg belumosudil BID alone): 287 (149) ^o ng*h/mL
AUCinf, geometric mean (geometric CV %) ([2]; 200 mg belumosudil BID alone): 259 (47.7) ^o; ng*h/mL
AUClast, arithmetic mean (SD) ([2]; 200 mg belumosudil BID alone): 205 (153) ^l ng*h/mL
AUClast, geometric mean (geometric CV %) ([2]; 200 mg belumosudil BID alone): 157 (93.0) ^l; ng*h/mL
t1/2, arithmetic mean (SD) ([2]; 200 mg belumosudil BID alone): 2.30 (0.757) ^p h
t1/2, geometric mean (geometric CV %) ([2]; 200 mg belumosudil BID alone): 2.19 (34.2) ^p; h
Cmax, arithmetic mean (SD) [2, 7]: 25.8 (12.6) ^n ng/mL
Cmax, geometric mean (geometric CV %) [2, 7]: 23.8 (39.6) ^n; ng/mL
Tmax, median (range) [2, 7]: 2.00 (1.00-6.00) h
Cmax, arithmetic mean (SD) [2, 8]: 26.1 (12.7) ^n ng/mL
Cmax, geometric mean (geometric CV %) [2, 8]: 23.6 (46.4) ^n; ng/mL
Tmax, median (range) [2, 8]: 13.98 (13.00-24.00) h
AUC0-24, arithmetic mean (SD) [2, 9]: 159 (61.2) ^c ng*h/mL
AUC0-24, geometric mean (geometric CV %) [2, 9]: 148 (41.9) ^c; ng*h/mL
AUCinf, arithmetic mean (SD) [2, 9]: 190 (37.7) ^i ng*h/mL
AUCinf, geometric mean (geometric CV %) [2, 9]: 187 (20.0) ^i; ng*h/mL
AUClast, arithmetic mean (SD) [2, 9]: 136 (55.5) ^c ng*h/mL
AUClast, geometric mean (geometric CV %) [2, 9]: 126 (41.7) ^c; ng*h/mL
Cmax, arithmetic mean (SD) [2, 9]: 55.2 (17.1) ^c ng/mL
Cmax, geometric mean (geometric CV %) [2, 9]: 52.5 (34.0) ^c; ng/mL
Tmax, median (range) [2, 9]: 2.08 (1.50-5.00) h
t1/2, arithmetic mean (SD) [2, 9]: 1.55 (0.325) ^j h
t1/2, geometric mean (geometric CV %) [2, 9]: 1.51 (21.4) ^j; h
AUC0-24, arithmetic mean (SD) [2, 10]: 81.3 (30.7) ^e ng*h/mL
AUC0-24, geometric mean (geometric CV %) [2, 10]: 75.6 (42.1) ^e; ng*h/mL
AUClast, arithmetic mean (SD) [2, 10]: 58.4 (18.7) ^e ng*h/mL
AUClast, geometric mean (geometric CV %) [2, 10]: 55.3 (36.4) ^e; ng*h/mL
Cmax, arithmetic mean (SD) [2, 10]: 24.9 (9.21) ^b ng/mL
Cmax, geometric mean (geometric CV %) [2, 10]: 23.2 (40.0) ^b; ng/mL
Tmax, median (range) [2, 10]: 3.00 (1.00-5.00) h
t1/2, arithmetic mean (SD) [2, 10]: 1.96 (0.931) ^f h
t1/2, geometric mean (geometric CV %) [2, 10]: 1.82 (38.5) ^f; h
metabolite concentrations [2, 11]: nonquantifiable levels in all but 1 subject
metabolite levels [2, 12]: nonquantifiable in all but 1 subject
ROCK2 activity of metabolite [3]: active

O=C(O)COc1cccc(-c2nc(Nc3ccc4[nH]ncc4c3)c3ccccc3n2)c1 [KD025m2]
AUC0-24, geometric mean (geometric CV %) [2, 4]: 767 (115.3) ^k; ng*h/mL
AUCinf, arithmetic mean (SD) [2, 4]: 1430 (981) ^q ng*h/mL
AUCinf, geometric mean (geometric CV %) [2, 4]: 1110 (90.3) ^q; ng*h/mL
AUClast, arithmetic mean (SD) [2, 4]: 1160 (998) ^k ng*h/mL
AUClast, geometric mean (geometric CV %) [2, 4]: 783 (122.6) ^k; ng*h/mL
t1/2, arithmetic mean (SD) [2, 4]: 3.20 (2.10) ^r h
t1/2, geometric mean (geometric CV %) [2, 4]: 2.76 (55.1) ^r h
Cmax, arithmetic mean (SD) [2, 5]: 129 (133) ^l ng/mL
Cmax, geometric mean (geometric CV %) [2, 5]: 72.3 (166.8) ^l; ng/mL
Cmax, arithmetic mean (SD) [2, 6]: 172 (160) ^n ng/mL
Cmax, geometric mean (geometric CV %) [2, 6]: 115 (121.8) ^n; ng/mL
AUC0-24, geometric mean (geometric CV %) ([2]; 200 mg belumosudil BID alone): 1950 (82.3) ^k; ng*h/mL
AUCinf, arithmetic mean (SD) ([2]; 200 mg belumosudil BID alone): 2550 (2200) ^c ng*h/mL
AUCinf, geometric mean (geometric CV %) ([2]; 200 mg belumosudil BID alone): 1900 (90.4) ^c; ng*h/mL
AUClast, arithmetic mean (SD) ([2]; 200 mg belumosudil BID alone): 2690 (2090) ^k ng*h/mL
AUClast, geometric mean (geometric CV %) ([2]; 200 mg belumosudil BID alone): 2030 (91.1) ^k; ng*h/mL
t1/2, arithmetic mean (SD) ([2]; 200 mg belumosudil BID alone): 5.70 (5.24) ^c h
t1/2, geometric mean (geometric CV %) ([2]; 200 mg belumosudil BID alone): 4.32 (78.9) ^c h
Cmax, arithmetic mean (SD) [2, 7]: 343 (202) ^k ng/mL
Cmax, geometric mean (geometric CV %) [2, 7]: 282 (75.6) ^k; ng/mL
Cmax, arithmetic mean (SD) [2, 8]: 323 (207) ng/mL
Cmax, geometric mean (geometric CV %) [2, 8]: 257 (83.9); ng/mL
AUC0-24, geometric mean (geometric CV %) [2, 13]: 745 (70.7); ng*h/mL
AUCinf, arithmetic mean (SD) [2, 13]: 1050 (792) ^c ng*h/mL
AUCinf, geometric mean (geometric CV %) [2, 13]: 843 (73.7) ^c; ng*h/mL
AUClast, arithmetic mean (SD) [2, 13]: 891 (710) ng*h/mL
AUClast, geometric mean (geometric CV %) [2, 13]: 704 (75.5); ng*h/mL
Cmax, arithmetic mean (SD) [2, 13]: 257 (152) ng/mL
Cmax, geometric mean (geometric CV %) [2, 13]: 221 (60.8); ng/mL
t1/2, arithmetic mean (SD) [2, 13]: 4.00 (3.69) ^g h
t1/2, geometric mean (geometric CV %) [2, 13]: 2.89 (92.2) ^g h
AUC0-24, geometric mean (geometric CV %) [2, 14]: 110 (84.0) ^v; ng*h/mL
AUCinf, arithmetic mean (SD) [2, 14]: 175 (19.4) ^t ng*h/mL
AUCinf, geometric mean (geometric CV %) [2, 14]: 174 (11.1) ^t; ng*h/mL
AUClast, arithmetic mean (SD) [2, 14]: 108 (76.5) ^v ng*h/mL
AUClast, geometric mean (geometric CV %) [2, 14]: 85.8 (81.6) ^v; ng*h/mL
Cmax, arithmetic mean (SD) [2, 14]: 29.4 (23.8) ^c ng/mL
Cmax, geometric mean (geometric CV %) [2, 14]: 23.5 (70.7) ^c; ng/mL
t1/2, arithmetic mean (SD) [2, 14]: 3.59 (1.84) ^w h
t1/2, geometric mean (geometric CV %) [2, 14]: 3.10 (69.6) ^w h
AUC0-24, geometric mean (geometric CV %) [2, 9]: 376 (56.7) ^c; ng*h/mL
AUCinf, arithmetic mean (SD) [2, 9]: 444 (237) ^h ng*h/mL
AUCinf, geometric mean (geometric CV %) [2, 9]: 396 (50.2) ^h; ng*h/mL
AUClast, arithmetic mean (SD) [2, 9]: 407 (237) ^c ng*h/mL
AUClast, geometric mean (geometric CV %) [2, 9]: 349 (61.1) ^c; ng*h/mL
Cmax, arithmetic mean (SD) [2, 9]: 169 (85.8) ^c ng/mL
Cmax, geometric mean (geometric CV %) [2, 9]: 148 (57.3) ^c; ng/mL
t1/2, arithmetic mean (SD) [2, 9]: 1.31 (0.368) ^h
t1/2, geometric mean (geometric CV %) [2, 9]: 1.27 (26.8) ^h
AUC0-24, geometric mean (geometric CV %) [2, 10]: 1100 (63.7); ng*h/mL
AUCinf, arithmetic mean (SD) [2, 10]: 1460 (910) ^d ng*h/mL
AUCinf, geometric mean (geometric CV %) [2, 10]: 1230 (69.5) ^d; ng*h/mL
AUClast, arithmetic mean (SD) [2, 10]: 1260 (811) ng*h/mL
AUClast, geometric mean (geometric CV %) [2, 10]: 1050 (68.1); ng*h/mL
Cmax, arithmetic mean (SD) [2, 10]: 379 (182) ng/mL
Cmax, geometric mean (geometric CV %) [2, 10]: 337 (54.7); ng/mL
t1/2, arithmetic mean (SD) [2, 10]: 3.86 (3.24) ^d h
t1/2, geometric mean (geometric CV %) [2, 10]: 3.03 (76.8) ^d h
decrease in AUCinf vs belumosudil alone [2, 11]: 33%
decrease in AUClast vs belumosudil alone [2, 11]: 33%
decrease in Cmax vs belumosudil alone [2, 11]: 35%
decrease in AUC0-24 vs belumosudil alone ([2]; coadministration of omeprazole): ~63%
decrease in Cmax (first dose) vs belumosudil alone ([2]; coadministration of omeprazole): ~73%
decrease in Cmax, second dose vs belumosudil alone ([2]; coadministration of omeprazole): ~57%
decrease in AUClast vs belumosudil alone [2, 12]: 94%
decrease in Cmax vs belumosudil alone [2, 12]: 93%
ROCK2 activity of metabolite [3]: inactive
